From US20250108023A1, “Products for Masking Bitterness” (The Third People's Hospital of Henan Province, priority 2023, published 2025)

Biological target: T1, sodium ion channel of Trpm5 bitter receptor (Mus musculus, UniProt Q9JJH7)
T1 construct: Put the removed tongue in a 2 ml EP tube, add 1-1.5 ml of 0.25% trypsin solution; from tissue; host or cells: cells dissociated with trypsin from mouse tongue
T1 sequence (Q9JJH7 1-1158): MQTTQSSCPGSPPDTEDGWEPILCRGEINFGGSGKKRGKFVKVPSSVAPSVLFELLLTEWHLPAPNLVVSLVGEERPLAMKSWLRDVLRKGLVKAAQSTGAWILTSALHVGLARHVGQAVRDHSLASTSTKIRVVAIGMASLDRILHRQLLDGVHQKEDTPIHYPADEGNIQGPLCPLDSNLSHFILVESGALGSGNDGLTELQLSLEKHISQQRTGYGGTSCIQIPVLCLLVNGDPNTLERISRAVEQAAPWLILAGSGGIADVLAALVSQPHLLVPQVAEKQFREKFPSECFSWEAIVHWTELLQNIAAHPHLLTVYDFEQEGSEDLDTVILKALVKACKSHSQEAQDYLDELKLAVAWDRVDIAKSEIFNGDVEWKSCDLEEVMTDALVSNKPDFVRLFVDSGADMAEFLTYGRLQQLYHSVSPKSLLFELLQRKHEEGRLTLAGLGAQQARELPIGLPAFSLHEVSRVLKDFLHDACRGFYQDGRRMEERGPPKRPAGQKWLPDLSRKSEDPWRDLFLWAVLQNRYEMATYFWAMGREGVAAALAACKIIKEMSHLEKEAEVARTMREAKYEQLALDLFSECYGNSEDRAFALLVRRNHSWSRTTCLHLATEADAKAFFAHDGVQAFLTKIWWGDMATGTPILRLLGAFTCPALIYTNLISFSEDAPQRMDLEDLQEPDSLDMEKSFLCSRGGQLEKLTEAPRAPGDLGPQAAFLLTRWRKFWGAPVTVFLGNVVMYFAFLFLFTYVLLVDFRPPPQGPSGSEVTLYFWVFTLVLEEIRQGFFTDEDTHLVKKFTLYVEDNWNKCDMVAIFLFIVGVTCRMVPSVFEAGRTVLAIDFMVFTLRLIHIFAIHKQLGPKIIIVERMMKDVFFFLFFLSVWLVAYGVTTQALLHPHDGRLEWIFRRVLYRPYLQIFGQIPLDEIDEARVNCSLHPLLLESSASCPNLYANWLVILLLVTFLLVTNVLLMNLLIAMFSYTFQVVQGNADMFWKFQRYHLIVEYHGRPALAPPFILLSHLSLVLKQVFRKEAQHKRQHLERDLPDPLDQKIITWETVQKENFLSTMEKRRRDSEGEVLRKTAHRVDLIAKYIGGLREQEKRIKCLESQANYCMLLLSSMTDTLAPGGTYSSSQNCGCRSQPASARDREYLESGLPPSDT
Assay: Immunofluorescence experiment of sodium ion channels in mouse tongue cells stimulated with bitter agent
Type: cell-based, mice
Details: for blocking effect on the sodium ion channel (result analysis in words): judged from change of sodium ion fluorescence after bitter drug
Procedure: The mouse was killed by dislocation, and the tongue was removed (minimizing tongue bleeding), disinfected with alcohol for 2 minutes (adding sodium citrate for anticoagulation), and washed with D-Hanks solution or rinsed with 10 ml of saline solution drawn by a syringe.
Take out the centrifuge tube from the constant temperature incubator, shake for 2 minutes, blow the undigested tongue several times with the gun tip, take out the tongue, cover it with the EP tube cap, put it in a centrifuge, centrifuge at 3000 rpm for 3 minutes, discard the supernatant, add cell culture medium (containing 10% inactivated serum), blow and disperse the cells, and place it in a 37° C. constant temperature incubator for 30 min to allow the cells to recover.
(1) Take out the prepared ENG-2 AM storage solution and warm it to room temperature for use, keeping it away from light. The concentration of the pre-prepared stock solution is 2 mM and it is stored at −18° C. for future use.
(2) Dilute the ENG-2 AM+DMSO stock solution to a […] working solution using serum-free culture medium.
(3) Load the probe in a serum-free culture medium containing an appropriate concentration of AM probe.
Take out the cells from the incubator, centrifuge, and discard the culture medium. Wash the cells once with D-Hanks solution, centrifuge, and discard the culture medium. Add 1 ml of culture medium again, then add 300 ul of sodium ion probe dilution solution, blow and disperse the cells, and incubate the cells at room temperature or 37° C. for 1 hour.
At the end of incubation, centrifuge at 100 rpm for 2 minutes, discard the supernatant, add 500 ul of cell culture medium without AM probe, blow and disperse the cells, and incubate for 20-60 min to ensure that the cells completely deesterify the AM group.
(4) Take 10 ul of incubation solution and drop it into the center of the cell counting plate, cover it with a slide, and observe it under a fluorescence microscope.
(5) Use a low-power microscope to find the cells, open the fluorescence path, detect the fluorescence signal with a fluorescence microscope, change to a high-power microscope, find the appropriate observation cells, observe and take pictures to record the initial signal.
(2) Experimental drugs: Add 5 ul of the tested drug to one side of the cover glass on the cell counting plate, use absorbent paper to absorb water on the opposite side, let the solution soak the cells, and then use a fluorescence microscope to observe and take 3-5 photos, one every 1-2 minutes; then add 5 ul of the standard bitter drug to one side of the cover glass on the cell counting plate, use absorbent paper to absorb water on the opposite side, let the solution soak the cells, and then use a fluorescence microscope to observe and take 3-5 photos, one every 1-2 minutes.
(5) Data analysis: Use Image J-Fiji software to analyze the images, compare the average values of the fluorescence pixels, remove the base number and compare them in the table, draw FIGS. 4-6, and use SPSS18.0 to perform chi-square tests to compare the differences between the data groups.

[1] = Bitterant 60 s (2% metronidazole solution)
[2] = Bitterant 120 s (2% metronidazole solution)
[3] = Bitterant 180 s (2% metronidazole solution)
[4] = Initial (before addition of drug), sodium ion dye ENG-2 AM
[5] = Bitterant 240 s (2% metronidazole solution)

| SMILES | average value of fluorescence brightness (Addition of drugs) | average value of fluorescence brightness, base number removed (Addition of drugs) | average value of fluorescence brightness [1] | average value of fluorescence brightness, base number removed [1] | average value of fluorescence brightness [2] | average value of fluorescence brightness, base number removed [2] | average value of fluorescence brightness [3] | average value of fluorescence brightness, base number removed [3] | average value of fluorescence brightness, base number removed (Initial) | average value of fluorescence brightness [4] | average value of fluorescence brightness [5] | average value of fluorescence brightness, base number removed [5] | blocking effect on the sodium ion channel (result analysis in words) |
| --- | --- | --- | --- | --- | --- | --- | --- | --- | --- | --- | --- | --- | --- |
| O=CC=Cc1ccccc1 [Cinnamaldehyde, 3-phenyl-2-propenal] | 31.017 | −0.328 | 30.893 | −0.452 | 30.691 | −0.654 | 30.597 | −0.748 | 0 | 31.345 |  |  | can block the sodium ion channel of Trpm5 bitter receptor |
| COc1ccc(CCN(C)CCCC(C#N)(c2ccc(OC)c(OC)c2)C(C)C)cc1OC (stereo not shown) [Verapamil, 5-((3,4-dimethoxyphenylethyl)methylamino)-2-(3,4-dimethoxyphenyl)-2-isopropylvaleronitrile, reference compound] | 27.77 | −0.085 | 28.089 | 0.234 | 27.651 | −0.204 | 27.574 | −0.281 | 0 | 27.855 |  |  | have poor effects and do not have bitterness masking effect |
| CCCCC[C@H](O)CC(=O)CCc1ccc(O)c(OC)c1 [Gingerol, 6-gingerol] | 25.244 | −0.093 | 25.15 | −0.187 | 25.137 | −0.2 | 25.08 | −0.257 | 0 | 25.337 |  |  | can block the sodium ion channel of Trpm5 bitter receptor |
| C=CCc1ccc(OC(C)=O)c(OC)c1 [Eugenol acetate] | 28.103 | −0.125 | 27.797 | −0.431 | 26.368 | −1.86 | 26.329 | −1.899 | 0 | 28.228 |  |  | can block the sodium ion channel of Trpm5 bitter receptor |
| CC(C)=CCCC(C)=CC=O [Citral, citral] | 29.943 | −0.335 | 29.766 | −0.512 | 29.742 | −0.536 | 29.647 | −0.631 | 0 | 30.278 |  |  | can block the sodium ion channel of Trpm5 bitter receptor |

Further lines, with some results ahead:

| average value of fluorescence brightness (Addition of drugs) | average value of fluorescence brightness, base number removed (Addition of drugs) | average value of fluorescence brightness [1] | average value of fluorescence brightness, base number removed [1] | average value of fluorescence brightness [2] | average value of fluorescence brightness, base number removed [2] | average value of fluorescence brightness [3] | average value of fluorescence brightness, base number removed [3] | average value of fluorescence brightness, base number removed (Initial) | average value of fluorescence brightness [4] | average value of fluorescence brightness [5] | average value of fluorescence brightness, base number removed [5] | SMILES | blocking effect on the sodium ion channel (result analysis in words) |
| --- | --- | --- | --- | --- | --- | --- | --- | --- | --- | --- | --- | --- | --- |
| 26.795 | −0.107 | 26.689 | −0.213 | 26.699 | −0.203 | 26.725 | −0.177 | 0 | 26.902 |  |  | COc1cc(C(=O)O)ccc1O [Vanillic acid, 3-methoxy-4-hydroxybenzoic acid] | have poor effects and do not have bitterness masking effect |
| 28.92 | 0.041 | 28.747 | −0.132 | 28.8 | −0.079 | 28.851 | −0.028 | 0 | 28.879 |  |  | CC(C)[C@@H]1CC[C@@H](C)C[C@H]1OC(=O)CCC(=O)O [Menthyl succinate] | can block the sodium ion channel of Trpm5 bitter receptor |
| 27.648 | −0.135 | 27.649 |  | 27.44 | −0.343 | 27.426 | −0.357 | 0 | 27.783 | 26.46 | −1.323 | C=CC(C)(O)CCC=C(C)C (stereo not shown) [Linalool, linalool] | can block the sodium ion channel of Trpm5 bitter receptor |
| 25.48 | −0.076 | 25.415 | −0.141 | 25.447 | −0.109 | 25.4 | −0.156 | 0 | 25.556 |  |  | CC1CCC(C(C)C)C(=O)C1 (stereo not shown) [Menthone, 5-methyl-2-isopropylcyclohexanone] | can block the sodium ion channel of Trpm5 bitter receptor |
